Reference: patent publication US20110117081A1, “FUNCTIONALIZED PYRROLIDINES AND USE THEREOF AS IAP INHIBITORS” (priority 2008, published 2011)
pEC50: −log10 of the molar value.

Experiments:
[1] = system: Ovarian adenocarcinoma SKOV3 cells; assay: SKOV3 cell viability assay (MTT); assay type: cell-based; conditions: Homo sapiens, SK-OV-3, 72 hours
Experimental: Ovarian adenocarcinoma SKOV3 cells (ATCC# HTB-77) were cultured as monolayers in McCoy's 5a medium (HyClone) supplemented with 2.2 g/L sodium bicarbonate (Gibco), 10% FBS (HyClone) and 1% penicillin/streptomycin (HyClone). Cells were seeded in tissue culture-treated 96 well plates at 5000 cells/well in 150 ul of media. After 24 hours, triplicate wells of cells were treated with various concentrations of compound (0.01 to 10000 nM) diluted in 50 ul of culture media. Cells were incubated at 37° C. (5% CO2) in the presence of compound for 72 hours. Metabolic viability of remaining cells was assessed by MTT (thiazolyl blue tetrazolium bromide, Sigma) assay. 20 ul of MTT reagent (10 mg/ml) was added per well and plates were incubated for 4 hours at 37° C. (5% CO2). The supernatant was then removed from the plate. The converted MTT product was solubilized with 100 uL of isopropanol and the absorbance was read at 570 nm using a Tecan spectrophotometer.
(§1) The percentage viability of compound-treated cells was expressed as a fraction of the absorbance/luminescence signal obtained from non-treated cells. EC50 values (corresponding to 50% cell survival in the presence of compound as compared to untreated controls) were calculated from MTT survival curves (HCT116 and SKOV3) using BioAssay software (CambridgeSoft) and from Cell Titer-Glo survival curves (synovioycte and Jurkat cells) using GraphPad Prism (Graph Pad Software Inc.). In the below chart, EC50 values are summarized as follows: a=EC50 of less than 10 nM; b=EC50 of 10-100 nM; and c=EC50 of greater than 100 nM.

[2] = system: Colorectal carcinoma HCT116 cells; assay: HCT116 + ETR1 cell viability assay (MTT); assay type: cell-based; conditions: with ETR1 (40 ng/ml), 72 hrs
Experimental: Colorectal carcinoma HCT116 cells (ATCC# CCL-247) were cultured as monolayers in 96 well plates at a density of 2000 cells per well in 100 ul of McCoy's 5a medium (HyClone) supplemented with 2.2 g/L sodium bicarbonate (Gibco), 10% FBS (HyClone) and 1% penecillin/streptomycin (HyClone) for 24 hours. Triplicate wells of cells were treated for 72 hrs at 37° C. (5% CO2) with 50 ul of HGS agonistic Trail receptor antibody, ETR1 (40 ng/ml) in combination with 50 ul of diluted compound (0.01 to 10000 nM). Metabolic viability of remaining cells was assessed by MTT assay.
as §1

SMILES | pEC50 [2] | pEC50 [1]
CN[C@@H](C)C(=O)N[C@H](C(=O)N1C[C@@H](NC(=O)c2ccc(C(=O)N[C@H]3C[C@@H](C(=O)N[C@H](CCc4ccccc4)c4ccccc4)N(C(=O)[C@@H](NC(=O)[C@H](C)NC)C4CCCCC4)C3)cc2)C[C@H]1C(=O)N[C@H](CCc1ccccc1)c1ccccc1)C1CCCCC1 [Compound 16] | 7.00 to 8.00 | 7.00 to 8.00
CN[C@@H](C)C(=O)N[C@H](C(=O)N1C[C@@H](NC(=O)c2ccc(C(=O)N[C@H]3C[C@@H](C(=O)NC4c5ccccc5-c5ccccc54)N(C(=O)[C@@H](NC(=O)[C@H](C)NC)C4CCCCC4)C3)cc2)C[C@H]1C(=O)NC1c2ccccc2-c2ccccc21)C1CCCCC1 [Compound 15] | > 8.00 | > 8.00
CN[C@@H](C)C(=O)N[C@H](C(=O)N1C[C@@H](NC(=O)c2ccc(C(=O)N[C@H]3C[C@@H](C(=O)NCc4ccccc4)N(C(=O)[C@@H](NC(=O)[C@H](C)NC)C4CCCCC4)C3)cc2)C[C@H]1C(=O)NCc1ccccc1)C1CCCCC1 [Compound 29] | > 8.00 | > 8.00
CN[C@@H](C)C(=O)N[C@H](C(=O)N1C[C@@H](NC(=O)c2ccc3cc(C(=O)N[C@H]4C[C@@H](C(=O)N[C@@H]5CCc6ccccc65)N(C(=O)[C@@H](NC(=O)[C@H](C)NC)C5CCCCC5)C4)ccc3c2)C[C@H]1C(=O)N[C@@H]1CCc2ccccc21)C1CCCCC1 [Compound 22] | > 8.00 | > 8.00
CN[C@@H](C)C(=O)N[C@H](C(=O)N1C[C@@H](NC(=O)c2ccc(C(=O)N[C@H]3C[C@@H](C(=O)N4CCC[C@@H]4c4ccccc4)N(C(=O)[C@@H](NC(=O)[C@H](C)NC)C4CCCCC4)C3)cc2)C[C@H]1C(=O)N1CCC[C@@H]1c1ccccc1)C1CCCCC1 [Compound 30] | < 7.00 | < 7.00
CN[C@@H](C)C(=O)N[C@H](C(=O)N1C[C@@H](NC(=O)c2ccc(-c3ccc(C(=O)N[C@H]4C[C@@H](C(=O)NC(c5ccccc5)c5ccccc5)N(C(=O)[C@@H](NC(=O)[C@H](C)NC)C5CCCCC5)C4)cc3)cc2)C[C@H]1C(=O)NC(c1ccccc1)c1ccccc1)C1CCCCC1 [Compound 11] | > 8.00 | 7.00 to 8.00
CN[C@@H](C)C(=O)N[C@H](C(=O)N1C[C@@H](NC(=O)c2ccc(C(=O)N[C@H]3C[C@@H](C(=O)N[C@H](COCc4ccccc4)c4ccccc4)N(C(=O)[C@@H](NC(=O)[C@H](C)NC)C4CCCCC4)C3)cc2)C[C@H]1C(=O)N[C@H](COCc1ccccc1)c1ccccc1)C1CCCCC1 [Compound 18] | > 8.00 | 7.00 to 8.00
CN[C@@H](C)C(=O)N[C@H](C(=O)N1C[C@@H](NC(=O)c2ccc(-c3ccc(C(=O)N[C@H]4C[C@@H](C(=O)N[C@@H]5CCc6ccccc65)N(C(=O)[C@@H](NC(=O)[C@H](C)NC)C5CCCCC5)C4)cc3)cc2)C[C@H]1C(=O)N[C@@H]1CCc2ccccc21)C1CCCCC1 [Compound 10] | > 8.00 | > 8.00
CN[C@@H](C)C(=O)N[C@H](C(=O)N1C[C@@H](NC(=O)c2ccc(C(=O)N[C@H]3C[C@@H](C(=O)N4CCCC[C@@H]4c4ccccc4)N(C(=O)[C@@H](NC(=O)[C@H](C)NC)C4CCCCC4)C3)cc2)CC1C(=O)N1CCCC[C@@H]1c1ccccc1)C1CCCCC1 (some centres unmarked) [Compound 28] | 7.00 to 8.00 | 7.00 to 8.00
CN[C@@H](C)C(=O)N[C@H](C(=O)N1C[C@@H](NC(=O)C2CCC(C(=O)N[C@H]3C[C@@H](C(=O)N[C@@H]4CCOc5ccccc54)N(C(=O)[C@@H](NC(=O)[C@H](C)NC)C4CCCCC4)C3)CC2)C[C@H]1C(=O)N[C@@H]1CCOc2ccccc21)C1CCCCC1 (some centres unmarked) [Compound 32] | > 8.00 | > 8.00
CN[C@@H](C)C(=O)N[C@H](C(=O)N1C[C@@H](NC(=O)c2ccc(C(=O)N[C@H]3C[C@@H](C(=O)N[C@@H]4CCc5ccccc54)N(C(=O)[C@@H](NC(=O)[C@H](C)NC)C4CCCCC4)C3)cc2)C[C@H]1C(=O)N[C@@H]1CCc2ccccc21)C1CCCCC1 [Compound 6] | > 8.00 | > 8.00
CN[C@@H](C)C(=O)N[C@H](C(=O)N1C[C@@H](NC(=O)c2ccc(C(=O)N[C@H]3C[C@@H](C(=O)Nc4ccccc4-c4ccccc4)N(C(=O)[C@@H](NC(=O)[C@H](C)NC)C4CCCCC4)C3)cc2)C[C@H]1C(=O)Nc1ccccc1-c1ccccc1)C1CCCCC1 [Compound 52] | > 8.00 | 
CN[C@@H](C)C(=O)N[C@H](C(=O)N1C[C@@H](NC(=O)c2ccc(C(=O)N[C@H]3C[C@@H](C(=O)N[C@H]4CCCc5ccccc54)N(C(=O)[C@@H](NC(=O)[C@H](C)NC)C4CCCCC4)C3)cc2)C[C@H]1C(=O)N[C@H]1CCCc2ccccc21)C1CCCCC1 [Compound 57] | 7.00 to 8.00 | 
CN[C@@H](C)C(=O)N[C@H](C(=O)N1C[C@@H](NC(=O)c2ccc(C(=O)N[C@H]3C[C@@H](C(=O)Nc4ccccc4)N(C(=O)[C@@H](NC(=O)[C@H](C)NC)C4CCCCC4)C3)cc2)C[C@H]1C(=O)Nc1ccccc1)C1CCCCC1 [Compound 47] | > 8.00 | 
CN[C@@H](C)C(=O)N[C@H](C(=O)N1C[C@@H](NC(=O)c2ccc(C(=O)N[C@H]3C[C@@H](C(=O)N4CCc5ccccc5C4)N(C(=O)[C@@H](NC(=O)[C@H](C)NC)C4CCCCC4)C3)cc2)C[C@H]1C(=O)N1CCc2ccccc2C1)C1CCCCC1 [Compound 35] | 7.00 to 8.00 | 
CN[C@@H](C)C(=O)N[C@H](C(=O)N1C[C@@H](NC(=O)c2ccc(C(=O)N[C@H]3C[C@@H](C(=O)NC(C)(C)c4ccccc4)N(C(=O)[C@@H](NC(=O)[C@H](C)NC)C4CCCCC4)C3)cc2)C[C@H]1C(=O)NC(C)(C)c1ccccc1)C1CCCCC1 [Compound 37] | > 8.00 | 

Second part, led by results:

pEC50 [2] | SMILES | pEC50 [1]
> 8.00 | CN[C@@H](C)C(=O)N[C@H](C(=O)N1C[C@@H](NC(=O)C2CCC(C(=O)N[C@H]3C[C@@H](C(=O)N[C@@H]4CCOc5ccc(F)cc54)N(C(=O)[C@@H](NC(=O)[C@H](C)NC)C4CCCCC4)C3)CC2)C[C@H]1C(=O)N[C@@H]1CCOc2ccc(F)cc21)C1CCCCC1 (some centres unmarked) [Compound 24] | 7.00 to 8.00
> 8.00 | CN[C@@H](C)C(=O)N[C@H](C(=O)N1C[C@@H](NC(=O)c2ccc(C(=O)N[C@H]3C[C@@H](C(=O)N[C@@H]4CCOc5ccc(F)cc54)N(C(=O)[C@@H](NC(=O)[C@H](C)NC)C4CCCCC4)C3)cc2)CC1C(=O)N[C@@H]1CCOc2ccc(F)cc21)C1CCCCC1 (some centres unmarked) [Compound 25] | 7.00 to 8.00
7.00 to 8.00 | CN[C@@H](C)C(=O)N[C@H](C(=O)N1C[C@@H](NC(=O)c2ccc(C(=O)N[C@H]3C[C@@H](C(=O)N[C@H](C)c4ccc(F)cc4)N(C(=O)[C@@H](NC(=O)[C@H](C)NC)C4CCOCC4)C3)cc2)C[C@H]1C(=O)N[C@H](C)c1ccc(F)cc1)C1CCOCC1 [Compound 42] | 
> 8.00 | CN[C@@H](C)C(=O)N[C@H](C(=O)N1C[C@@H](NC(=O)c2ccc(C(=O)N[C@H]3C[C@@H](C(=O)N[C@@H]4CCCc5ccc(F)cc54)N(C(=O)[C@@H](NC(=O)[C@H](C)NC)C4CCCCC4)C3)cc2)C[C@H]1C(=O)N[C@@H]1CCCc2ccc(F)cc21)C1CCCCC1 [Compound 33] | 
> 8.00 | CCCN[C@@H](C)C(=O)N[C@H](C(=O)N1C[C@@H](NC(=O)c2ccc(C(=O)N[C@H]3C[C@@H](C(=O)N[C@@H]4CCCc5ccccc54)N(C(=O)[C@@H](NC(=O)[C@H](C)NCCC)C4CCCCC4)C3)cc2)C[C@H]1C(=O)N[C@@H]1CCCc2ccccc21)C1CCCCC1 [Compound 56] | 
7.00 to 8.00 | CN[C@@H](C)C(=O)N[C@H](C(=O)N1C[C@@H](NC(=O)c2ccc(C(=O)N[C@H]3C[C@@H](C(=O)Nc4ccccc4-c4ncccn4)N(C(=O)[C@@H](NC(=O)[C@H](C)NC)C4CCCCC4)C3)cc2)C[C@H]1C(=O)Nc1ccccc1-c1ncccn1)C1CCCCC1 [Compound 45] | 
> 8.00 | CCN[C@@H](C)C(=O)N[C@H](C(=O)N1C[C@@H](NC(=O)c2ccc(C(=O)N[C@H]3C[C@@H](C(=O)N[C@@H]4CCCc5ccccc54)N(C(=O)[C@@H](NC(=O)[C@H](C)NCC)C4CCCCC4)C3)cc2)C[C@H]1C(=O)N[C@@H]1CCCc2ccccc21)C1CCCCC1 [Compound 53] | 
> 8.00 | CN[C@@H](C)C(=O)N[C@H](C(=O)N1C[C@@H](NC(=O)c2ccc(C(=O)N[C@H]3C[C@@H](C(=O)N[C@@H]4CCCc5ccccc54)N(C(=O)[C@@H](NC(=O)[C@H](C)NC)C4CCC4)C3)cc2)C[C@H]1C(=O)N[C@@H]1CCCc2ccccc21)C1CCC1 [Compound 44] | 
> 8.00 | CN[C@@H](C)C(=O)N[C@H](C(=O)N1C[C@@H](NC(=O)c2ccc(C(=O)N[C@H]3C[C@@H](C(=O)N[C@@H]4CCOc5cc(F)ccc54)N(C(=O)[C@@H](NC(=O)[C@H](C)NC)C4CCCCC4)C3)cc2)C[C@H]1C(=O)N[C@@H]1CCOc2cc(F)ccc21)C1CCCCC1 [Compound 36] | 
